Measured values reported in paper PMC10113214 (Scientific Reports, 2023).

Assays:
[1] = Rheology of hydrogels; assay type: physicochemical; details: 1% hydrogel, 37 °C
Experimental: Rheological parameters of the hydrogels were identified using an MCR 302 rheometer (Anton Paar GmbH, Graz, Austria). The rheometer was equipped with a CP50-1 stainless steel cone-and-plate system of 50 mm diameter, 1° cone angle and 50 µm cone truncation and a Peltier controlled temperature unit. An aliquot of 900 µL of 1% hydrogel was applied to a plate cone. The linear viscoelastic (LVE) region was determined through an amplitude sweeps: shear strain (0.01–100% at 6 rad s^−1) and shear stress (0.001–10 Pa at 6.28 rad s^−1). Frequency sweep were measured from 0.01 to 100 rad s^−1 at 2.5% strain. The frequency dependence of the storage modulus (G’) and loss modulus (G”) of the hydrogels were measured at 37 °C. All experiments were carried out in triplicate and reported as the mean of three repeats.

[2] = molecular target: T1, Human neutrophil elastase (Homo sapiens, UniProt P08246); experiment: Elastase enzymatic cleavage; assay type: in vitro ADME; details: human neutrophil elastase 150 nM, peptide 1 mM, 30 min, 37 °C; for identified fragments of peptides after elastase digestion (most abundant MS signals): 300 rpm, 0.1 M Tris HCl, 500 mM NaCl, 0.05% Triton X-100, 20 mM CaCl2 pH 7.5, HPLC and MALDI or LC-MS
T1 construct: purchased Sigma-Aldrich
T1 sequence (P08246 30-267): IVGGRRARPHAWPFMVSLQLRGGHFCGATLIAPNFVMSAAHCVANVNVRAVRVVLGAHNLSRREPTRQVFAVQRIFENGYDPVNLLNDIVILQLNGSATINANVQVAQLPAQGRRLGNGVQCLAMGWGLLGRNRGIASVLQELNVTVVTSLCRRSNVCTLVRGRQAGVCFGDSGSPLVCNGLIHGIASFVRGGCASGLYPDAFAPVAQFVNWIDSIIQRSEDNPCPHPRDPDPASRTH
Experimental: Human neutrophil elastase (EC No. 3.4.21.37, Sigma-Aldrich) was used to study peptide susceptibility to that enzyme. Peptides were dissolved in 0.1 M Tris HCl, 500 mM NaCl, 0.05% Triton X-100, 20 mM CaCl2 pH 7.5 buffer mixture. Peptides (final concentration 1 mM) were mixed with the enzyme (final concentration 150 nM) and incubated for 30 min. in a thermoshaker (37 °C, 300 rpm). The reaction was stopped by a 10% aqueous solution of TFA. The results were analyzed using HPLC and MALDI or LC–MS. Details of this experiment are described in the Supplementary Data.

[3] = Transmission electron microscopy of nanofibres; assay type: physicochemical; details: 1% gel in PBS diluted to 0.001%, uranyl acetate stain
Experimental: 1% gel solutions were prepared and incubated in PBS. The samples were then diluted to 0.001% concentration. A drop of solution was applied to a microcellulose membrane and stained with a 1.5% solution of uranyl acetate. The images were registered on a Tecnai Spirit BioTwin FEI Transmission Electron Microscope operating at 120 kV.

[4] = system: 46BR.1N fibroblasts; experiment: LDH cytotoxicity assay, 46BR.1N; assay type: cell-based, human; details: 150 µg/ml, 48 h, 3 independent experiments, n = 12
Experimental: Human HaCaT keratinocytes (DKFZ, Heidelberg, Germany)[47],[48], the human dermal fibroblast 46BR.1N cell line (ECACC, Sigma Aldrich Co.) and human primary dermal fibroblasts used in this study were routinely cultured in culture flasks (growth surface area: 25 cm^2) in DMEM-HG medium supplemented with 10% fetal bovine serum, 100 U/mL penicillin and […] streptomycin under standard conditions.
Briefly, the HaCaT and 46BR.1N cells were seeded in 96-well plates at a density of 5000 per well. Cell stimulation with RADA derivatives was performed using a protocol described before[49],[50]. Both assays were performed according to the manufacturers’ instructions (XTT- Roche, Cat. No. 11465015001; LDH- Takara, Cat. No. MK401).

[5] = system: full-thickness excisional dorsal skin wounds; experiment: Skin wound healing model in mice; assay type: in vivo, BALB/c mice
Experimental: Eight to ten-week-old BALB/c female mice were used for these experiments. All experimental procedures were approved by the Local Ethics Committee for Animal Experimentation in Bydgoszcz, Poland (Approval No. 49/2016). The study was conducted in compliance with the ARRIVE gudidelines. All animal handling methods were carried out in accordance with European Union Commission Recommendation of 18 June 2007 on guidelines for the accommodation and care of animals used for experimental and other scientific purposes. Before experiments, mice were randomized and divided into groups comprising six individuals. The mice were anaesthetized with inhaled 2–5% isoflurane. The skin on the dorsum was shaved and disinfected. After the skin was folded and raised cranially and caudally along the spine, the mouse was placed in a lateral position, and the folded skin was pierced with a 6.0 mm biopsy punch to make two through-and-through symmetrical wounds. Next, 10 µL of peptide hybrid hydrogel was applied onto each wound. Every gel was prepared in sterile conditions in biological safety cabinet, using sterile water to final concentration of 10 mg/ml (1%). Then the gels were incubated for 24 h allowing it to assemble. Control mice were treated with RADA16-I. The wounds were covered with a transparent Tegaderm TM dressing to protect the wound from outer environment of the cage and other animals. It was fastened with an adhesive plaster wrapped around the animal’s torso. The peptide hybrids were applied daily to the wounds for five consecutive days. The dressings were replaced daily in the first five days of the experiment and every second day until the end of the second week of the experiment. To measure the wound areas the wounds were photographed with a ruler placed next to the injury site. Wound areas were calculated using the computer-assisted image analysis program ImageJ[51].

[6] = Circular dichroism, conformation and thermal stability of β-sheet; assay type: physicochemical
Experimental: The molar ellipticity of peptides were registered on a Jasco J-815 spectrometer (JASCO, Easton, MD, USA). Solutions of peptide hybrids were prepared in water solution (10 mg/ml), incubated at 37 °C for 4 h and then diluted to a final concentration of 0.20 mg/ml. CD spectra measurements were performed at 25 °C, 30 °C, 35 °C, 40 °C, 45 °C, 50 °C, 55 °C and 60 °C, at 190–260 nm wavelength and at a scan speed of […]. The background of the solvent was subtracted. The results are presented as the relationship of mean residue molar ellipticity (MRME) [deg × cm^2 × dmol^−1] to wavelength [nm]. Measurements were performed in triplicate. In order to determine the peptides’ denaturation temperatures, the molar ellipticity rotatory angle at a fixed wavelength of 196 nm, [θ]196, was measured as a function of temperature (max 100 °C). CD temperature measurements were carried out up to a temperature of 100 °C. Above this temperature, the cure was extrapolated with GraphPad Prism 8 software using the 4PL curve fit function. The denaturation temperature was determined as the temperature at which the change in ellipticity (θ) was half complete.

Compound: CC(=O)N[C@@H](CCCNC(=N)N)C(=O)N[C@@H](C)C(=O)N[C@@H](CC(=O)O)C(=O)N[C@@H](C)C(=O)N[C@@H](CCCNC(=N)N)C(=O)N[C@@H](C)C(=O)N[C@@H](CC(=O)O)C(=O)N[C@@H](C)C(=O)N[C@@H](CCCNC(=N)N)C(=O)N[C@@H](C)C(=O)N[C@@H](CC(=O)O)C(=O)N[C@@H](C)C(=O)N[C@@H](CCCNC(=N)N)C(=O)N[C@@H](C)C(=O)N[C@@H](CC(=O)O)C(=O)N[C@@H](C)C(=O)NCC(=O)NCC(=O)NCC(=O)N[C@@H](C)C(=O)N[C@@H](C)C(=O)N1CCC[C@H]1C(=O)N[C@H](C(=O)NCC(=O)NCC(=O)NCC(=O)N[C@@H](Cc1c[nH]cn1)C(=O)N[C@@H](CCCCN)C(N)=O)C(C)C [RADA-GHK, Ac-(Arg-Ala-Asp-Ala)4-Gly-Gly-Gly-Ala-Ala-Pro-Val-Gly-Gly-Gly-His-Lys-NH2]
- storage modulus G’ ([1]; cone-plate, frequency sweep 0.01–100 rad s−1 at 2.5% strain (Fig. 9 legend: 1%), mean of three repeats): 550 Pa
- shear strain above which the gel behaves like a liquid (G” > G’) ([1]; strain sweep, ω = 6.28 rad/s): above 30%
- identified fragments of peptides after elastase digestion (most abundant MS signals) ([2]; fragment Ac-(RADA)4-GGG-AAPV-COOH): Ac-(RADA)4-GGG-AAPV-COOH
- identified fragments of peptides after elastase digestion (most abundant MS signals) ([2]; fragment NH2 -GHK-NH2): NH2 -GHK-NH2
- main / predominant fragments of elastase digestion ([2]; pH 7.5 buffer, HPLC, mass spectrometry): Gly^26His^27Lys^28
- fibre thickness (TEM) [3]: about 3 nm
- cytotoxicity (LDH), slight effect [4]: ca. 15%
- wound closure on day 7 ([5]; BALB/c female mice, 6.0 mm punch dorsal wounds, 10 µL 1% hydrogel topically daily for five days, n = 6, SD): 41.8 ± 16.1%
- wound healing compared to RADA16-I ([5]; BALB/c mice, 1% hydrogel topically, day 2 up to day 14): Accelerated wound healing
- heat stability of β-sheet structure (rank) ([6]; CD scans at different temperatures): highest
- temperature of first disruption of the β-sheets ([6]; CD, [θ]196 nm as function of temperature 4–100 °C, gel 10 mg/ml in water, 37 °C 4 h, diluted to 0.20 mg/ml, decrease of molar ellipticity): ~65 °C
- transition temperature (half β-conformation, half disordered) ([6]; CD, [θ]196 nm vs temperature, 0.20 mg/ml in water, above 100 °C curve extrapolated, 4PL fit): 94 °C
